Experimental findings from patent publication US5714471A, “Peptide and peptide analog protease inhibitors” (SIBIA Neurosciences, Inc., priority 1995, dated 1998) are described below.

The subject of the test is Aβ formation in HGB 717/Swed cells. The test can be described thus: Immunoblot assay for Aβ peptide (inhibition of Aβ formation). The format is cell-based, human. Conditions: overnight incubation, conditioned medium, relative to DMSO control. An excerpt: Human glioblastoma cells (ATCC Accession No. HTB16) were stably transfected with a DNA expression vector encoding a 695 amino acid isoform variant of the amyloid precursor protein (APP) containing the familial Swedish double mutations at codons 670 and 671 (K to N and M to L, respectively; see Mullan et al. (1992) Nature Genet. 1:345-347) and an additional mutation at codon 717 (V to F; see Murrell et al. (1991) Science 254:97-99) to produce cells designated HGB 717/Swed. High levels of Aβ are detectable in the conditioned medium isolated from HGb 717/Swed cultured cells. The medium also contains larger secreted fragments, α-sAPP695, which are alternatively processed APP fragments whose generation precludes Aβ formation.
HGB 717/Swed cells were grown at 37° C. under a 5% carbon dioxide atmosphere in Dulbecco's modified eagle medium (DMEM; Gibco) supplemented with 10% heat-inactivated fetal calf serum, 0.45% glucose, 2 mM L-glutamine, 100 units/ml penicillin, and 100 μg/ml streptomycin sulfate (Gemini Bioproducts). Approximately 1×10^6 cells were incubated overnight in 5 ml of DMEM containing varying μM final concentrations of desired test compounds or a DMSO control. Conditioned medium was collected, and unwanted cells and debris were removed by sedimentation at 3,000 rpm at 4° C.
Aβ peptides were isolated from the medium by immunoaffinity purification using an Aβ-specific antibody. To reduce the interaction of non-specific binding of unrelated proteins, such as serum proteins, to the antibody, the medium was pre-treated with rabbit antisera and Protein A Sepharose (Pharmacia) for 4 hours at 4° C. The sepharose-bound material was removed by centrifugation at 3,000 rpm at 4° C. for 10 min, and Aβ peptides were immunoaffinity purified from the clarified medium by incubation overnight with an affinity purified polyclonal rabbit antibody (referred to as 2939) prepared against a synthetic Aβ peptide corresponding to amino acids 1 to 28. Protein A-conjugated sepharose was added to immobilize the Aβ-antibody complexes, and the resin was pelleted by centrifugation at 3,000 rpm at 4° C. for 10 min. The Aβ -antibody complexes were eluted from the matrix by denaturing the complex by boiling in the presence of SDS.
Equal portions of each sample were loaded on 16% Tricine gels (Novex), and subjected to electrophoresis. Resolved proteins were transferred from the gel to Hybond nitrocellulose (Amersham, Arlington Heights, Ill.) by electroblotting, and incubated with the commercially available monoclonal antibody 6E10 (obtained from Drs. Kim and Wisniewski, Institute for Basic Research, New York, see, published International PCT application WO 90/12871), which specifically recognizes Aβ residues 1 to 17. Specifically bound antibody was detected using a biotinylated goat anti-mouse IgG secondary antibody (Sigma), followed by the addition of streptavidin conjugated to horseradish preoxidase (Amersham, Arlington Heights, Ill.), and documented by luminescent detection (Amersham). Levels of Aβ peptides were determined by laser densitometry of visualized films. A positive result in the assay is a decrease in the formation of the 4-kDa Aβ peptides relative to the DMSO control.
Background: Immunoblotting shows a protein as a band on a membrane.

Non-standard residues stand in square brackets, D forms with d. Residues, ends and D or L forms follow the SMILES beside them. ξ: configuration not given here. *: point of attachment. Chg = N[CH](C(=O)O)C1CCCCC1; Nle = CCCC[CH](N)C(=O)O; Cbz = O=C(OCc1ccccc1)*; ξNle = CCCCC(N)C(=O)O; CHN2 = [N-]=[N+]=C*

In the case of `C=C(C)CC(C=O)NC(=O)[C@H](CC(C)C)NC(=O)[C@H](CC(C)C)OCc1ccccc1` (mixture of isomers) [2S--benzoxyvaleric--L--Lene--(H), (2SR)-N-[(2S)-2-benzoxy-4-methylpentanoyl]-L-Leu N-[2-(4-methyl-4-pentenal)]amide], the “% INHIBITION OF Aβ” value (concentration of 40 μM) amounted to 85%.

Consider `CC(=O)N[C@@H](CC(C)C)C(=O)N[C@@H](CC(C)C)C(=O)NC(C=O)CC1CCCCC1` (mixture of isomers) [Ac--L--L--Cha--(H), N-Ac-L-Leu-L-Leu-DL-cyclohexylalaninal], for which, for the setting “concentration of 10 μM”, the “% INHIBITION OF Aβ” value was 46%.

Turning to `CCCCC(NC(=O)[C@H](CC(C)C)NC(=O)[C@H](CC(C)C)NC(C)=O)C(=O)C(F)(F)F` (mixture of isomers) [Ac--L--L--Nl--(TFMK), (3SR)-N-Ac-L-Leu-L-Leu N-[3-(1,1,1-trifluoro-2-oxo-heptyl)]amide], the “% INHIBITION OF Aβ” value (concentration of 75 μM) was 50%.

Turning to `CC=CCC(C=O)NC(=O)[C@H](CC(C)C)NC(=O)[C@H](CC(C)C)NC(C)=O` (mixture of isomers) [Ac--L--L--Nlene--(H), (2SR)-N-Ac-L-Leu-L-Leu N [2-(trans-4-hexenal)]amide], the “% INHIBITION OF Aβ” value (concentration of 75 μM) was determined as 96%.

For `CC(C)C[C@H](NC(=O)OCc1ccccc1)C(=O)N[C@@H](Cc1ccccc1)C(=O)NC(C=O)CC1CCCCC1` (mixture of isomers) [Cbz--L--F--Cha--(H), (2SR)-N-Cbz-L-Leu-L-Phe-DL-cyclohexylalaninal], for the setting “concentration of 40 μM”, the “% INHIBITION OF Aβ” value came to 100%.

Take `C=C(C)CC(C=O)NC(=O)[C@H](Cc1ccccc1)NC(=O)[C@H](CC(C)C)NC(=O)OCc1ccccc1` (mixture of isomers) [Cbz--L--F--Lene--(H), (2SR)-N-Cbz-L-Leu-L-Phe-N-[2-(4-methyl-4-pentenal)]amide]: under “concentration of 10 μM”, the “% INHIBITION OF Aβ” value is 69%.

`C=C(C)CC(C=O)NC(=O)[C@H](CC(C)C)NC(=O)[C@H](CC(C)C)NC(=O)OCc1ccccc1` (mixture of isomers) [Cbz--L--L--Lene--(H), (2SR)-N-Cbz-L-Leu-L-Leu N-[2-(4-methyl-4-pentenal)]amide]: the “% INHIBITION OF Aβ” value (concentration of 10 μM) was 95%.

On to `CCCCC(C=O)NC(=O)[C@H](CC(C)C)N(C)C(=O)[C@H](CC(C)C)NC(=O)OCc1ccccc1` (mixture of isomers) [Cbz--L--[CH3]--L--Nl--(H), N-Cbz-L-Leu-L-(methyl)Leu-DL-norleucinal], for which, under “concentration of 40 μM”, the “% INHIBITION OF Aβ” value is listed as 77%.

`CCCCC(C=O)NC(=O)[C@H](CC(C)C)NC(=O)[C@H](CC(C)C)NC(=O)OCC1c2ccccc2-c2ccccc21` (mixture of isomers) [Fmoc--L--L--Nl--(H), N-Fmoc-L-Leu-L-Leu-DL-norleucinal]: the “% INHIBITION OF Aβ” value (concentration of 50 μM) is 89%.

For `CC(=O)NC(CC(C)C)C(=O)NC(CC(C)C)C(=O)NC(C=O)C1CCCCC1` [Ac--L--L--Chg--(H)] (Ac-Leu-Leu-[Chg]-aldehyde; configuration not given here), the “% INHIBITION OF Aβ” value (concentration of 75 μM) turned out to be 99%.

Take `CCCCC(C#N)NC(=O)[C@H](CC(C)C)NC(=O)[C@H](CC(C)C)NC(C)=O` (stereo partly drawn) [Ac--L--L--Nl--(CN), (2S)-N-Ac-L-Leu-L-Leu N-[2-(hexanenitrile)]amide]: the “% INHIBITION OF Aβ” value (concentration of 75 μM) worked out at 94%.

Consider `CCCCC(NC(=O)[C@H](CC(C)C)NC(=O)[C@H](CC(C)C)NC(C)=O)C(=O)C=[N+]=[N-]` (stereo partly drawn) [Ac--L--L--Nl--(DM), N-Ac-L-Leu-L-Leu-L-Nle-COCHN2] (Ac-Leu-Leu-[ξNle]-CHN2), for which the “% INHIBITION OF Aβ” value (concentration of 75 μM) is listed as 87%.

As to `CCCCC(C=O)NC(=O)C(CC(C)C)NC(=O)C1CCCN1C(=O)OCc1ccccc1` [Cbz--P--L--Nl--(H), N-Cbz-L-Pro-L-Leu-L-norleucinal] (Cbz-Pro-Leu-[Nle]-aldehyde; configuration not given here), the “% INHIBITION OF Aβ” value (concentration of 40 μM) is given as 80%.

As to “N-Cbz-L-Leu-L-Leu-DL-(methyl)norleucinal [Cbz--L--L--[CH3]--Nl--(H)]”, under “concentration of 40 μM”, the “% INHIBITION OF Aβ” value amounted to 97%.
